# Laboratory results published in ChEMBL document CHEMBL4024706 (Eur J Med Chem, 2017).
# Assays:
# [1] = molecular target: Tyrosine-protein kinase BTK (Homo sapiens, UniProt Q06187); experiment: Inhibition of full length recombinant human N-terminal His tagged […] expressed in baculovirus infected Sf9 insect cells using poly (Glu,Tyr)4:1 as substrate pretreated for 60 mins followed by substrate addition after 1 hr by ADP-Glo luminescence assay
# [2] = molecular target: Activin receptor type-1B (Homo sapiens) (UniProt P36896); experiment: Inhibition of wild-type human ACVR1B (S187 to I505 residues) expressed in bacterial expression system assessed as residual activity at 1 uM by Kinomescan method relative to control
# [3] = molecular target: Tyrosine-protein kinase Blk (Homo sapiens) (UniProt P51451); experiment: Inhibition of wild-type human partial length BLK (G211 to L503 residues) expressed in bacterial expression system assessed as residual activity at 1 uM by Kinomescan method relative to control
# [4] = molecular target: Protein-tyrosine kinase 6 (Homo sapiens) (UniProt Q13882); experiment: Inhibition of wild-type human partial length BRK (L166 to T451 residues) expressed in bacterial expression system assessed as residual activity at 1 uM by Kinomescan method relative to control
# [5] = molecular target: Cyclin-dependent kinase 4 (Homo sapiens) (UniProt P11802); experiment: Inhibition of wild-type human full length CDK4 (M1 to E303 residues) expressed in mammalian expression system assessed as residual activity at 1 uM by Kinomescan method relative to control
# [6] = molecular target: Cyclin-dependent kinase 5 (Homo sapiens) (UniProt Q00535); experiment: Inhibition of wild-type human full length CDK5 (M1 to P292 residues) expressed in bacterial expression system assessed as residual activity at 1 uM by Kinomescan method relative to control
# [7] = molecular target: Casein kinase I isoform delta (Homo sapiens) (UniProt P48730); experiment: Inhibition of wild-type human full length CSNK1D (M1 to K409 residues) expressed in bacterial expression system assessed as residual activity at 1 uM by Kinomescan method relative to control
# [8] = molecular target: Casein kinase I isoform gamma-2 (Homo sapiens) (UniProt P78368); experiment: Inhibition of wild-type human full length CSNK1G2 (M1 to K415 residues) expressed in bacterial expression system assessed as residual activity at 1 uM by Kinomescan method relative to control
# [9] = molecular target: Megakaryocyte-associated tyrosine-protein kinase (Homo sapiens) (UniProt P42679); experiment: Inhibition of wild-type human full length CTK (M43 to P508 residues) expressed in mammalian expression system assessed as residual activity at 1 uM by Kinomescan method relative to control
# [10] = molecular target: Death-associated protein kinase 2 (Homo sapiens) (UniProt Q9UIK4); experiment: Inhibition of wild-type human full length DAPK2 (M1 to S370 residues) expressed in bacterial expression system assessed as residual activity at 1 uM by Kinomescan method relative to control
# [11] = molecular target: Myotonin-protein kinase (Homo sapiens) (UniProt Q09013); experiment: Inhibition of wild-type human partial length DMPK (V47 to V415 residues) expressed in bacterial expression system assessed as residual activity at 1 uM by Kinomescan method relative to control
# [12] = molecular target: Serine/threonine-protein kinase MRCK gamma (Homo sapiens) (UniProt Q6DT37); experiment: Inhibition of wild-type human partial length DMPK2 (S46 to S408 residues) expressed in bacterial expression system assessed as residual activity at 1 uM by Kinomescan method relative to control
# [13] = tested on: Epidermal growth factor receptor (Homo sapiens), P00533 [L858R]; experiment: Inhibition of human partial length EGFR L858R mutant (R669 to V1011 residues) expressed in bacterial expression system assessed as residual activity at 1 uM by Kinomescan method relative to control
# [14] = molecular target: Beta-adrenergic receptor kinase 1 (Homo sapiens) (UniProt P25098); experiment: Inhibition of wild-type human full length GRK2 (M1 to L689 residues) expressed in mammalian expression system assessed as residual activity at 1 uM by Kinomescan method relative to control
# [15] = molecular target: Mitogen-activated protein kinase 8 (Homo sapiens) (UniProt P45983); experiment: Inhibition of wild-type human full length JNK1 (M1 to Q384 residues) expressed in mammalian expression system assessed as residual activity at 1 uM by Kinomescan method relative to control
# [16] = tested on: Mast/stem cell growth factor receptor Kit (Homo sapiens), P10721 [D816H]; experiment: Inhibition of human partial length KIT D816H mutant (I571 to D952 residues) expressed in mammalian expression system assessed as residual activity at 1 uM by Kinomescan method relative to control
# [17] = molecular target: Platelet-derived growth factor receptor alpha (Homo sapiens) (UniProt P16234); experiment: Inhibition of wild-type human partial length PDGFRA (V575 to D1002 residues) expressed in mammalian expression system assessed as residual activity at 1 uM by Kinomescan method relative to control
# [18] = tested on: Phosphatidylinositol 4,5-bisphosphate 3-kinase catalytic subunit alpha isoform (Homo sapiens), P42336 [H1047Y]; experiment: Inhibition of human partial length PIK3CA H1047Y mutant (R108 to N1068 residues) expressed in mammalian expression system assessed as residual activity at 1 uM by Kinomescan method relative to control
# [19] = molecular target: Serine/threonine-protein kinase pim-1 (Homo sapiens) (UniProt P11309); experiment: Inhibition of wild-type human partial length PIM1 (A15 to K313 residues) expressed in bacterial expression system assessed as residual activity at 1 uM by Kinomescan method relative to control
# [20] = molecular target: Serine/threonine-protein kinase PRP4 homolog (Homo sapiens) (UniProt Q13523); experiment: Inhibition of wild-type human partial length PRP4 (D657 to I1007 residues) expressed in bacterial expression system assessed as residual activity at 1 uM by Kinomescan method relative to control
# [21] = molecular target: Ribosomal protein S6 kinase alpha-5 (Homo sapiens) (UniProt O75582); experiment: Inhibition of wild-type human partial length N-terminal RPS6KA5 kinase domain 1 expressed in bacterial expression system assessed as residual activity at 1 uM by Kinomescan method relative to control
# [22] = molecular target: Serine/threonine-protein kinase SIK2 (Homo sapiens) (UniProt Q9H0K1); experiment: Inhibition of wild-type human full length SIK2 (M1 to N926 residues) expressed in bacterial expression system assessed as residual activity at 1 uM by Kinomescan method relative to control
# [23] = molecular target: Tyrosine-protein kinase Srms (Homo sapiens) (UniProt Q9H3Y6); experiment: Inhibition of wild-type human partial length SRMS (L208 to P488 residues) expressed in mammalian expression system assessed as residual activity at 1 uM by Kinomescan method relative to control
# [24] = molecular target: Serine/threonine-protein kinase 33 (Homo sapiens) (UniProt Q9BYT3); experiment: Inhibition of wild-type human full length STK33 (M1 to L514 residues) expressed in bacterial expression system assessed as residual activity at 1 uM by Kinomescan method relative to control
# [25] = molecular target: Mitogen-activated protein kinase kinase kinase 19 (Homo sapiens) (UniProt Q56UN5); experiment: Inhibition of wild-type human partial length YSK4 (T1019 to H1328 residues) expressed in mammalian expression system assessed as residual activity at 1 uM by Kinomescan method relative to control
smiles,measurement,setting,value
C=CC(=O)Nc1cc(Nc2cc(-c3cccc(NC(=O)c4ccc(C(C)(C)C)cc4)c3C)cn(C)c2=O)ccc1C(=O)N1CCOCC1,IC50,[1],7 nM
same,Activity,[2],100%
same,Activity,[3],82%
same,Activity,[4],96%
same,Activity,[5],100%
same,Activity,[6],90%
same,Activity,[7],99%
same,Activity,[8],94%
same,Activity,[9],100%
same,Activity,[10],99%
same,Activity,[11],95%
same,Activity,[12],100%
same,Activity,[13],100%
same,Activity,[14],100%
same,Activity,[15],100%
same,Activity,[16],94%
same,Activity,[17],100%
same,Activity,[18],91%
same,Activity,[19],100%
same,Activity,[20],100%
same,Activity,[21],97%
same,Activity,[22],87%
same,Activity,[23],100%
same,Activity,[24],100%
same,Activity,[25],100%
